Calls of active or inactive are those of the source.
What was measured:
[1] = molecular target: T1, DNA repair protein RAD52 homolog (Homo sapiens, UniProt P43351); format: functional, biochemical
T1 sequence (P43351 whole entry): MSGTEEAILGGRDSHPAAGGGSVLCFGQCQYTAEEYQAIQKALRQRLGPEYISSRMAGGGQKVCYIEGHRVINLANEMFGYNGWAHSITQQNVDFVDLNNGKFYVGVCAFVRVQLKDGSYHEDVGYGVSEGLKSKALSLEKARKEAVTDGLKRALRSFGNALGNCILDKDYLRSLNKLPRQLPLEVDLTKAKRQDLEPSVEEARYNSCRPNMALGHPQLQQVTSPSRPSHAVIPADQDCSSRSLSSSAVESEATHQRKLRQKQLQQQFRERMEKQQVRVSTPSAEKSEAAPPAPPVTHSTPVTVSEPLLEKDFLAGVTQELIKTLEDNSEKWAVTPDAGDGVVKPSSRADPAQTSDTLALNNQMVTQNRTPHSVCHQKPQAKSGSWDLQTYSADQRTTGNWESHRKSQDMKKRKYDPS

BJ [2] = experiment: cells; format: functional, cell-based; details: Homo sapiens
Prothrombin = Prothrombin (Bos taurus, UniProt P00735); experiment: thrombin inhibition, dose response, biochemical, fluorescence polarization, uHTS hits (AID 602369); format: functional
[3] = molecular target: 72 kDa type IV collagenase (Homo sapiens, UniProt P08253); experiment: Dose Response validation of uHTS RPN11 inhibitor hits using a MMP-2 Fluorescence assay.; format: functional
Sequence of 72 kDa type IV collagenase (P08253 whole entry): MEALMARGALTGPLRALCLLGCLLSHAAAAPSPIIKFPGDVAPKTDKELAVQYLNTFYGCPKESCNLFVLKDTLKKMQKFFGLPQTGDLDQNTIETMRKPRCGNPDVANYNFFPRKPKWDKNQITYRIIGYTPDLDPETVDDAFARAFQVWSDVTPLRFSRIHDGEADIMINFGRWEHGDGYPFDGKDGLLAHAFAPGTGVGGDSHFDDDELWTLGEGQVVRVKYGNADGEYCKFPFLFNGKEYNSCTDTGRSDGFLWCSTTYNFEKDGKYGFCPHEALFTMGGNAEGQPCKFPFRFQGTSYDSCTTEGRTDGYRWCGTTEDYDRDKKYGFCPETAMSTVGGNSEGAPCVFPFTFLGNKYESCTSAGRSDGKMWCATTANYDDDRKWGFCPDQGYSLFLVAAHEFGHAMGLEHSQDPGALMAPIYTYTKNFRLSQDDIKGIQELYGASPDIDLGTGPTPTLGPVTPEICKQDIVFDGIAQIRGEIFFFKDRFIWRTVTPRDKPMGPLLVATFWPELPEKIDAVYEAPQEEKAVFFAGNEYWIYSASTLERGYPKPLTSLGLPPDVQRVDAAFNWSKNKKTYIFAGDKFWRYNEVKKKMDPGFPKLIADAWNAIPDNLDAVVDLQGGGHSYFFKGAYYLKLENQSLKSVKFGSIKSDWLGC

BJ [4] = experiment: cytotoxicity toward BJ-TERT-LT-ST fibroblasts, dose response, cell-based, RAS-independent, luminescence (AID 1935); format: functional; details: Homo sapiens;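 further: BJ fibroblasts immortalized with TERT plus LT and ST oncogenes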
BJ [5] = experiment: cytotoxicity toward Ras-transformed BJeLR fibroblasts, dose response, cell-based, alamar blue fluorescence, cherrypicked samples (AID 2631); format: functional; details: Homo sapiens;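 further: confirmatory dose-response assay in RAS-dependent BJ fibroblasts engineered with TERT, LT and ST, with cytotoxicity read by fluorescence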
[6] = molecular target: T2, Heat shock factor protein 1 (Mus musculus, UniProt P38532); experiment: inhibition of MG132-induced HSE-luciferase signal, confirmation, cell-based, NIH3T3, luminescence, dose retest (AID 2382); format: functional;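 further: NIH3T3 fibroblasts with HSF1-driven luciferase reporter stressed by proteasome inhibitor MG132; luminescence from HSF1-driven luciferase expression after 8 hours of MG132 stress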
T2 sequence (P38532 whole entry): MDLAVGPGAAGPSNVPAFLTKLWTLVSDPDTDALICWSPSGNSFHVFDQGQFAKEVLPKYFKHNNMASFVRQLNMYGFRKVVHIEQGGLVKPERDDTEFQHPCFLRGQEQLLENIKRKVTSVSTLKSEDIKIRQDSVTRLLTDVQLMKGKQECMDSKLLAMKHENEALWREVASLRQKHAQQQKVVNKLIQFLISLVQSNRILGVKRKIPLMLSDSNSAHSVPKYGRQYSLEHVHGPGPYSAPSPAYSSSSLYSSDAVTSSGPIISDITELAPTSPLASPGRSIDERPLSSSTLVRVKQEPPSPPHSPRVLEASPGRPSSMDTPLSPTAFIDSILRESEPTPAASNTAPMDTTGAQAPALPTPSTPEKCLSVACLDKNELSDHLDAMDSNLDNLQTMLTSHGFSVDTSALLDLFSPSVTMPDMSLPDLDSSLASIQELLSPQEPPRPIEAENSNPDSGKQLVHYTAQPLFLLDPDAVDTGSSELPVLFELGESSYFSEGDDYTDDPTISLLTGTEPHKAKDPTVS

[7] = molecular target: 26S proteasome non-ATPase regulatory subunit 14 (Homo sapiens, UniProt O00487); experiment: inhibition of proteasome subunit RPN11 – biochemical, fluorescence polarization, uHTS hits, confirmation (AID 602368); format: functional
Sequence of 26S proteasome non-ATPase regulatory subunit 14 (O00487 whole entry): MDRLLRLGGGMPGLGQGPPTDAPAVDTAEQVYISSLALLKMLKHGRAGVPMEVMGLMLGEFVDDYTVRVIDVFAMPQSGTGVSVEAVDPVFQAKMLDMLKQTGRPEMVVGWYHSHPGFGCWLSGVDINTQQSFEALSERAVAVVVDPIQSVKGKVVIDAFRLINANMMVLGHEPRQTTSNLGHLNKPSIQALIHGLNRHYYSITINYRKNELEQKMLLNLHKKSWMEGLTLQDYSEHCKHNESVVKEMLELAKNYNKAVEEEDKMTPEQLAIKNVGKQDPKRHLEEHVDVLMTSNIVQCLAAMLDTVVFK

[8] = cytotoxicity toward DRD oncogenic fibroblasts, dose response, cell-based, non-viral oncogenic, luminescence (AID 1934); format: functional; details: Homo sapiens
BJ [9] = experiment: cytotoxicity toward BJ-TERT fibroblasts, dose response, cell-based, RAS-independent, luminescence (AID 1933); format: functional; details: Homo sapiens
[10] = molecular target: T3, Corticotropin-releasing factor receptor 2/Corticotropin-releasing factor-binding protein (Homo sapiens, UniProt P24387+Q13324); experiment: activators of CRF receptor 2 with binding protein – uHTS hits, confirmation (AID 602473); format: functional; details: read-out: EC50_Mean
T3 sequence (Q13324 whole entry): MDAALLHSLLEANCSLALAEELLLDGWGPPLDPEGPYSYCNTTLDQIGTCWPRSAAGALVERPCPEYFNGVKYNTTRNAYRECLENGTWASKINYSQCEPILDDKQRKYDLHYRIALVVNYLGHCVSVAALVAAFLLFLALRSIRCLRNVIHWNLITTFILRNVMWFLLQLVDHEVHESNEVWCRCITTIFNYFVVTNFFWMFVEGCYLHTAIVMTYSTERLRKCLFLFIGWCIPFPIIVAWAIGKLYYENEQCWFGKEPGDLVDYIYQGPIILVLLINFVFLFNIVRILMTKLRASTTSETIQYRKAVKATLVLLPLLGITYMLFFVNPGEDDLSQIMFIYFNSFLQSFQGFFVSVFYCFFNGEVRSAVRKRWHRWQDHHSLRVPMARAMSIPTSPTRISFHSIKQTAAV
T3 sequence (P24387 whole entry): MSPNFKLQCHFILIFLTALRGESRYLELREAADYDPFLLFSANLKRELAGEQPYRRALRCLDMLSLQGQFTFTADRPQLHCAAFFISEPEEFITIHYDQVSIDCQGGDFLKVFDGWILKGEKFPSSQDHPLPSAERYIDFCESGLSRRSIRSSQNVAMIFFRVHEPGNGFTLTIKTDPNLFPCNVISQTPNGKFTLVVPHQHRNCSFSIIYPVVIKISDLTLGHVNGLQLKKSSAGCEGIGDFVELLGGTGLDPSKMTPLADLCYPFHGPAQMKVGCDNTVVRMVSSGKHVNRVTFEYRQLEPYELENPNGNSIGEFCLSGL

[11] = molecular target: T3, Corticotropin-releasing factor receptor 2/Corticotropin-releasing factor-binding protein; experiment: Dose Response confirmation of uHTS hits for small molecule antagonists of the CRF-binding protein and CRF-R2 receptor complex.; format: functional; details: read-out: IC50_Mean
[12] = molecular target: T4, Low molecular weight phosphotyrosine protein phosphatase (Homo sapiens, UniProt P24666); format: functional; details: read-out: IC50_Mean;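 further: Dose-response confirmation assay measuring inhibition of LMPTP enzyme activity by fluorescence intensity read-out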
T4 sequence (P24666 whole entry): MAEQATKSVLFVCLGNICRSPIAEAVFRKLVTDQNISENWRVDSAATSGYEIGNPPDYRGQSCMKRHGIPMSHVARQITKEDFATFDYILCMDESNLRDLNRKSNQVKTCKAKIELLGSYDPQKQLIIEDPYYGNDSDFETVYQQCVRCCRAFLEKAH

[13] = molecular target: Peroxisome proliferator-activated receptor gamma/Nuclear receptor coactivator 1 (Homo sapiens, UniProt P37231); format: functional;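 further: agonist potency as compounds enhance coactivator SRC-1 recruitment to PPARgamma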
Sequence of Peroxisome proliferator-activated receptor gamma/Nuclear receptor coactivator 1 (P37231 whole entry): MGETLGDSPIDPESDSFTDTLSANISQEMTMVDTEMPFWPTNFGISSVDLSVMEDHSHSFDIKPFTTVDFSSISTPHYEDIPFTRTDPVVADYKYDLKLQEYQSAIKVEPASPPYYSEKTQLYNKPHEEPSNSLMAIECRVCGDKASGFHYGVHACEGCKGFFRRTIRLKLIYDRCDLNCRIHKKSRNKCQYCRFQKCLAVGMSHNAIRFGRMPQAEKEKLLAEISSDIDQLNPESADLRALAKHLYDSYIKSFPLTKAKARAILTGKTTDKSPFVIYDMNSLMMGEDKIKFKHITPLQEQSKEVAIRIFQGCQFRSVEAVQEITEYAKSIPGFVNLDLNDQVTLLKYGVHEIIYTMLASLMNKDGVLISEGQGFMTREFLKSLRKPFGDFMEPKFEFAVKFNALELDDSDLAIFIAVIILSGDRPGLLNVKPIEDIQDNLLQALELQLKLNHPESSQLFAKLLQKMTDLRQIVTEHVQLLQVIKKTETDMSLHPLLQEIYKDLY
Sequence of Peroxisome proliferator-activated receptor gamma/Nuclear receptor coactivator 1 (Q15788 whole entry, further chain): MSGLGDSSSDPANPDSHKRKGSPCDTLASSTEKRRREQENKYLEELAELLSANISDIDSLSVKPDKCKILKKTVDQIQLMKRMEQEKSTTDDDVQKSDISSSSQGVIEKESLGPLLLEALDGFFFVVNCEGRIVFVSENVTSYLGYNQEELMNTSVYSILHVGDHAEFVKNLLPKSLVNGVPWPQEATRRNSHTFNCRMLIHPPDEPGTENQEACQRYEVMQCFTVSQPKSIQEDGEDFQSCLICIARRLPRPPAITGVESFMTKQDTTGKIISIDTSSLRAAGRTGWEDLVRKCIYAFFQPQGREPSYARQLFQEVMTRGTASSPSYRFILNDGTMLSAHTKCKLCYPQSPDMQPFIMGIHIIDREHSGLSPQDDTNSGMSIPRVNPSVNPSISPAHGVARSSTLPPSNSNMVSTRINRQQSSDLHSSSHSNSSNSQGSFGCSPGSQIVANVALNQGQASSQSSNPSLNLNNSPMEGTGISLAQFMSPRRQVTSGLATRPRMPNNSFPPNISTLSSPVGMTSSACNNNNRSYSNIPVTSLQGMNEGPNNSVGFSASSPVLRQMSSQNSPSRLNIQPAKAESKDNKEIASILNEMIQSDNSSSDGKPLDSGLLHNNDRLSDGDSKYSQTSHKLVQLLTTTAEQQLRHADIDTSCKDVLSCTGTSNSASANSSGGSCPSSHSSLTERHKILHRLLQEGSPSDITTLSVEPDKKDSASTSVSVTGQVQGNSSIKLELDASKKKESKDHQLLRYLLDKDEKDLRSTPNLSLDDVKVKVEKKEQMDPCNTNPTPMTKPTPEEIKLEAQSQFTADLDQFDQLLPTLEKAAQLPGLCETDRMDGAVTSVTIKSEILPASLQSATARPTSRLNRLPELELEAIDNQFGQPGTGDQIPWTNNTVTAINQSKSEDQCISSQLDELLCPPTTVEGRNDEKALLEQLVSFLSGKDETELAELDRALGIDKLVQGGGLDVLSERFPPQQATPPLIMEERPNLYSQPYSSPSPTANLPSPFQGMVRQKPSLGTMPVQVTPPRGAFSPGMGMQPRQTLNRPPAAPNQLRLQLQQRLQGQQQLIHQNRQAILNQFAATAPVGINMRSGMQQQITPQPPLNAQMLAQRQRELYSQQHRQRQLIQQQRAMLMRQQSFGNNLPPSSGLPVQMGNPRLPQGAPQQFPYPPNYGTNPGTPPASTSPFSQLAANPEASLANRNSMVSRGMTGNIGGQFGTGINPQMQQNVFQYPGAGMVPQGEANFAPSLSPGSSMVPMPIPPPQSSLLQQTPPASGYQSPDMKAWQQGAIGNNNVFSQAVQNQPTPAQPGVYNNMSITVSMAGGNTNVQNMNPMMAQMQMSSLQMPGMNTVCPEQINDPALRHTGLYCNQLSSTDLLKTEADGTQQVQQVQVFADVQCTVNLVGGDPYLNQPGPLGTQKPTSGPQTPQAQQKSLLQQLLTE

[14] = growth suppression of beta-catenin-knockout colon cells, dose response, cell-based, HCT116, human colon tumor (AID 1045); format: functional;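 further: HCT116 colon tumor cells with beta catenin knocked out; cells exposed to compound for 60 hours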
[15] = growth suppression of PTEN-null colon cells, dose response, cell-based, HCT116 PTEN knockout (AID 1047); format: functional;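 further: HCT116 colon tumor cells with PTEN knocked out; cells exposed to compound for 60 hours before readout; potency for loss of cell viability measured by luminescence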
[16] = molecular target: Peroxisome proliferator-activated receptor gamma/Nuclear receptor coactivator 3 (Homo sapiens, UniProt P37231); format: functional;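 further: agonist potency for raising coactivator recruitment to the receptor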
[17] = microbe, parasite or virus in culture; format: functional; details: Mycobacterium tuberculosis
[18] = molecular target: T5, Replicative DNA helicase DnaB (Mycobacterium tuberculosis, UniProt P9WMR3); experiment: DnaB intein splicing inhibitors, dose response, biochemical, cell-free fluorescence (AID 449749); format: functional
T5 sequence (P9WMR3 whole entry): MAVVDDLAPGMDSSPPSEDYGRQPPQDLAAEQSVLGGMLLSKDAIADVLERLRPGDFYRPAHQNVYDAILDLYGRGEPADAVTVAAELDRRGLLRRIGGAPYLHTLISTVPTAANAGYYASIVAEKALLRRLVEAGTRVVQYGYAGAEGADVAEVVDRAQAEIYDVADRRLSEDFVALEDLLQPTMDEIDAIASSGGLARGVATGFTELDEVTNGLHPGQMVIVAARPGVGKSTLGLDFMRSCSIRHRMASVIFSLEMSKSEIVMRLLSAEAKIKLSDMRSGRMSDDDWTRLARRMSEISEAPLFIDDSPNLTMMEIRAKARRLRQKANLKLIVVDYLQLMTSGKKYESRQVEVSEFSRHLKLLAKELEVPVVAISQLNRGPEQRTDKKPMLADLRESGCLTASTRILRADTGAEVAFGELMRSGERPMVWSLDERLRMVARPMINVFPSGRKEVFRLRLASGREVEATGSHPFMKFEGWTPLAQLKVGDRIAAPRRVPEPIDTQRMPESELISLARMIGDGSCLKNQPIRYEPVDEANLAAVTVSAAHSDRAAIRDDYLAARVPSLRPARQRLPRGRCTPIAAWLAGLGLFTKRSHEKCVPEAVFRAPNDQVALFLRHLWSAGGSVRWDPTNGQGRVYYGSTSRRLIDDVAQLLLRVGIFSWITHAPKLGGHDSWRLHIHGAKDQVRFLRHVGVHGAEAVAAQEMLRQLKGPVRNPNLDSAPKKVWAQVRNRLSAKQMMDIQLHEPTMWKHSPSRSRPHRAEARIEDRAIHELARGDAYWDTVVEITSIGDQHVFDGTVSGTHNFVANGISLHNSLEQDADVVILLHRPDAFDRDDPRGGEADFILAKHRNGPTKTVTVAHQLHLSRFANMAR

Protein RecA = molecular target: T6, Protein RecA (Mycobacterium tuberculosis, UniProt P9WHJ3); experiment: Fluorescence Cell-Free Homogeneous Dose Retest to Identify Inhibitors of RecA-Intein Splicing Activity. [Related pubchem assays (depositor defined):AID2097, AID2223, AID489010, AID492950]; format: functional
T6 sequence (P9WHJ3 whole entry): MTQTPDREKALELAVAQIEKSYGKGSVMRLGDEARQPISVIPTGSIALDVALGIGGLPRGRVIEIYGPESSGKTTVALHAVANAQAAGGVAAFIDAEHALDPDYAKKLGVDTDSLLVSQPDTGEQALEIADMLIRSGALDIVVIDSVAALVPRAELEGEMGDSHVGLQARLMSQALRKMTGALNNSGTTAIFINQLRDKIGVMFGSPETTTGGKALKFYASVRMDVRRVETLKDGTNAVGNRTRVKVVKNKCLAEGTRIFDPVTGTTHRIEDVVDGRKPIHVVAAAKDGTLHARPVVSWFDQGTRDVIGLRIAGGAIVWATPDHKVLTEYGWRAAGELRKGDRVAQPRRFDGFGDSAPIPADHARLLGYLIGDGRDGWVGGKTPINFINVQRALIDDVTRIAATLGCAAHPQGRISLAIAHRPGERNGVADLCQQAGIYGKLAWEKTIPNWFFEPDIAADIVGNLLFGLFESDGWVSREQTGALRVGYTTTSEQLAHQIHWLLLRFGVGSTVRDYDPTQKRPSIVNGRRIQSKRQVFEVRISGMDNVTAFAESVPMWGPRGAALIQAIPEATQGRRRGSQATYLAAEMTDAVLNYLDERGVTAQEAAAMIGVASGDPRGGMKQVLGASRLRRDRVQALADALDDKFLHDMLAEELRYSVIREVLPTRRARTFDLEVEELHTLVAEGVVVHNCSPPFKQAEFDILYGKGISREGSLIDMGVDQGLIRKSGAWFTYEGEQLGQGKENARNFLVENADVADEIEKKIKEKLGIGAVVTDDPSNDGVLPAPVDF

[19] = molecular target: Peroxisome proliferator-activated receptor gamma/Nuclear receptor coactivator 2 (Homo sapiens, UniProt P37231); format: functional;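 further: agonist potency for raising coactivator recruitment to the receptor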
Sequence of Peroxisome proliferator-activated receptor gamma/Nuclear receptor coactivator 2 (P37231 whole entry): as the sequence (P37231 whole entry) above
Sequence of Peroxisome proliferator-activated receptor gamma/Nuclear receptor coactivator 2 (Q15596 whole entry, further chain): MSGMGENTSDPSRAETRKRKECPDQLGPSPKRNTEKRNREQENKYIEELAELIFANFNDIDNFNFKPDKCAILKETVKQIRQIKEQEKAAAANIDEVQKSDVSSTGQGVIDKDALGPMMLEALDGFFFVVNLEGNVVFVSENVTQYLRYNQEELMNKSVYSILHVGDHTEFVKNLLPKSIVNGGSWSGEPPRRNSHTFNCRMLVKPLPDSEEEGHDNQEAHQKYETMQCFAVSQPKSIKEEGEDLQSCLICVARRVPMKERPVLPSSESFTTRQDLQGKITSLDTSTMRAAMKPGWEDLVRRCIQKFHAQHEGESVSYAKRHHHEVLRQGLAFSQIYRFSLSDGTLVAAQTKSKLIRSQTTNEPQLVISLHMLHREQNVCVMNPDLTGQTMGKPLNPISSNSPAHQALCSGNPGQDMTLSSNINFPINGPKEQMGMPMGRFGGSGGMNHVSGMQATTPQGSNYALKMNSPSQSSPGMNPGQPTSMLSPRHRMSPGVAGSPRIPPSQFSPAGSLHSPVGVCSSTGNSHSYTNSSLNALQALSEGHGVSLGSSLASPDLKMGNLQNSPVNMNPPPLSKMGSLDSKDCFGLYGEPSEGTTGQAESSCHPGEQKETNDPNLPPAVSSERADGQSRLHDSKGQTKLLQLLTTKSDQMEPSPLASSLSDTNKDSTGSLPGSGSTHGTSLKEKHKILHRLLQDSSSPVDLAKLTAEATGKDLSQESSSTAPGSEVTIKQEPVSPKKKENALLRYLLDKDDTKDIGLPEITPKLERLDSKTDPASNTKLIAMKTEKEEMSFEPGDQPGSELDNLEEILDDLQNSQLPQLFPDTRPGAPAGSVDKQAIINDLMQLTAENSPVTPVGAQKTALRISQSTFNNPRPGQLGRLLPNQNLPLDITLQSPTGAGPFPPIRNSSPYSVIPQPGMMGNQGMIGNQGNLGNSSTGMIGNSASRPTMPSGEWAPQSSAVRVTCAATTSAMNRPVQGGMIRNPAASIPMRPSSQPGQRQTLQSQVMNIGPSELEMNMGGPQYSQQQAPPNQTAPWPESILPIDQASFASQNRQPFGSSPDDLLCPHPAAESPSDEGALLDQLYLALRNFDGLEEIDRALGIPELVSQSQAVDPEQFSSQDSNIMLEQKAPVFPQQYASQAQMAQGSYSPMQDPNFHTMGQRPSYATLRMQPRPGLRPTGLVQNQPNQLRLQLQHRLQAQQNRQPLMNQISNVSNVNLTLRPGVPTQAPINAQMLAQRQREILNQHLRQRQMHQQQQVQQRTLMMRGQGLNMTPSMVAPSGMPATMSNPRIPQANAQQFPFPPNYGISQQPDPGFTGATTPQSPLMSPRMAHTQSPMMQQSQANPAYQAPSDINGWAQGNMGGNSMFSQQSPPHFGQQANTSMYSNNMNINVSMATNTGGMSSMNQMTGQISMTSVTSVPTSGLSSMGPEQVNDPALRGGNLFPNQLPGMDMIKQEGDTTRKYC

CCN1CCc2c(sc(NC(=O)c3cc4ccccc4cc3OC)c2C(N)=O)C1
AC50 [1]: 3.75 µM (active) | EC50 (BJ [2]): 5.67 µM (inconclusive) | IC50 (Prothrombin): 32.5 µM (active) | IC50 [3]: > 100 µM (inactive) | EC50 (BJ [4]): 4.91 µM (inconclusive) | EC50 (BJ [5]): 0.937 µM (active) | EC50 [6]: 40.7 µM (active) | IC50 [7]: 26.3 µM (active) | EC50 [8]: 6.38 µM (active) | EC50 (BJ [9]): 4.46 µM (inconclusive)

COc1ccc(Cn2c(-c3ccco3)nc3c(c(=O)c4ccccc4n3C)c2=O)cc1
EC50 [10]: > 53 µM (inactive) | IC50 [11]: > 47.1 µM (inactive) | IC50 [12]: 39 µM (inactive)

O=c1c(Cl)nc2cc(Cl)ccc2n1CCNc1ncc(C(F)(F)F)cc1Cl
EC50 [13]: 19.8 µM (not active) | EC50 (BJ [2]): 6.1 µM (inconclusive) | EC50 [14]: 4.66 µM (active) | EC50 (BJ [4]): 1.98 µM (active) | EC50 [15]: 4.75 µM (active) | EC50 (BJ [5]): 0.574 µM (inconclusive) | EC50 [16]: 36.3 µM (not active) | CC50 [17]: 11.5 µM (active) | EC50 [8]: 2.81 µM (inconclusive) | AC50 [18]: > 120 µM (inactive) | EC50 (Protein RecA): 0.951 µM (active) | EC50 [19]: 20.1 µM (not active) | EC50 (BJ [9]): 2.67 µM (inconclusive)

Source: ChEMBL document CHEMBL1201862, “PubChem BioAssay data set” (2004)
